Results from US20170007615A1, “Antibacterial Compounds” (priority 2014, published 2017).
≈ marks a conversion by molar mass, not a printed value. Like-named read-outs stand apart in the source and are kept apart here. Positions of bridges follow the written chain, without caps; N, C: chain ends. Non-standard residues stand in square brackets, D forms with d. Residues, ends and D or L forms follow the SMILES beside them. *: point of attachment. Ileψ(thiazoline)Cys = CC[C@H](C)[C@H](N)C1=N[C@H](C(=O)*)CS1; dOrn = NCCC[C@@H](N)C(=O)O

Tests used:
E. coli (ATCC 25922) [1] = experiment: microbe, parasite or virus in culture; details: Escherichia coli
E. coli (ATCC 25922) [2] = details: for MIC of Compound (μg/ml) in the presence of PMBN (128 μg/ml): Table 1, (b) No effect; for MIC of Compound (μg/ml) in the presence of PMBN (32 μg/ml): (b) No significant effect
[3] = ATCC25922, read-out: MIC Compound alone, Table 1
[4] = ATCC25922, read-out: MIC Compound alone, Table 12
[5] = ATCC25922, read-out: MIC Compound alone

Compound | MIC (E. coli (ATCC 25922) [1]; [3]) [µg/mL] | MIC of Compound (μg/ml) in the presence of PMBN (128 μg/ml) (E. coli (ATCC 25922) [2]) | MIC of Compound (μg/ml) in the presence of PMBN (32 μg/ml) (E. coli (ATCC 25922) [2]; Table 12) | other results
CN(C)c1cc(NC(=O)CNC(C)(C)C)c(O)c2c1C[C@H]1C[C@H]3[C@H](N(C)C)C(O)=C(C(N)=O)C(=O)[C@@]3(O)C(O)=C1C2=O [Tigecyclin, reference compound] | – | – | ≦0.25^(b) μg/ml | MIC Compound alone (E. coli (ATCC 25922) [2]; Table 12): ≦0.25 μg/ml
CCNC(=O)Nc1nc2cc(-c3cccnc3)cc(-c3ccccn3)c2s1 [Example 163 (WO2007/148093)] | > 64 | 0.25 µg/mL | – | –
O=C(N[C@H](CO)[C@H](O)c1ccc([N+](=O)[O-])cc1)C(Cl)Cl [Chloramphenicol, reference compound] | – | – | 1 µg/mL | MIC (E. coli (ATCC 25922) [1]; [4]): 4 µg/mL (≈ 12.4 µM)
C[C@@H](O)[C@H]1C(=O)N2C(C(=O)O)=C(SCCN=CN)C[C@H]12 [Imipenem, reference compound] | – | – | 0.5^(b) μg/ml | MIC (E. coli (ATCC 25922) [1]; [4]): 0.5 µg/mL (≈ 1.67 µM)
NC[C@H]1O[C@H](O[C@H]2[C@H](O)[C@@H](O[C@H]3O[C@H](CO)[C@@H](O)[C@H](N)[C@H]3O)[C@H](N)C[C@@H]2N)[C@H](O)[C@@H](O)[C@@H]1O [Kanamycin, reference compound] | – | – | 4^(b) μg/ml | MIC (E. coli (ATCC 25922) [1]; [4]): 8 µg/mL (≈ 16.5 µM)
CCn1cc(C(=O)O)c(=O)c2cc(F)c(N3CCNCC3)nc21 [Enoxacin, reference compound] | – | – | 0.03^(b) μg/ml | MIC (E. coli (ATCC 25922) [1]; [4]): 0.06 µg/mL (≈ 0.187 µM)
CC1(C)S[C@@H]2[C@H](NC(=O)[C@H](N)c3ccc(O)cc3)C(=O)N2[C@H]1C(=O)O [Amoxicillin, reference compound] | – | – | 8 µg/mL | MIC (E. coli (ATCC 25922) [1]; [4]): 32 µg/mL (≈ 87.6 µM)
Gentamicin [reference compound] | – | – | 8^(b) μg/ml | MIC Compound alone (E. coli (ATCC 25922) [2]; Table 12): 8 µg/mL
CC[C@H](C)[C@H](N)C1=N[C@H](C(=O)N[C@@H](CC(C)C)C(=O)N[C@H](CCC(=O)O)C(=O)N[C@H](C(=O)N[C@H]2CCCCNC(=O)[C@H](CC(N)=O)NC(=O)[C@@H](CC(=O)O)NC(=O)[C@H](Cc3cnc[nH]3)NC(=O)[C@@H](Cc3ccccc3)NC(=O)[C@H]([C@@H](C)CC)NC(=O)[C@@H](CCCN)NC2=O)[C@@H](C)CC)CS1 [Bacitracin, reference compound] ({Ileψ(thiazoline)Cys}-L[dE]IK[dOrn]I[dF]H[dD]N; lactam 4-C) | – | – | >64^(b) μg/ml | MIC Compound alone (E. coli (ATCC 25922) [2]; ATCC 25922): >64 µg/mL
CN(C)[C@@H]1C(O)=C(C(N)=O)C(=O)[C@@]2(O)C(O)=C3C(=O)c4c(O)cccc4[C@@](C)(O)[C@H]3C[C@@H]12 [Tetracycline, reference compound] | – | – | 1^(b) μg/ml | MIC (E. coli (ATCC 25922) [1]; [5]): 1 µg/mL (≈ 2.25 µM)
CC1(C)S[C@@H]2[C@H](NC(=O)C(C(=O)O)c3ccccc3)C(=O)N2[C@H]1C(=O)O (stereo partly drawn) [Carbenicillin, reference compound] | – | – | 32^(b) μg/ml | MIC (E. coli (ATCC 25922) [1]; [4]): 64 µg/mL (≈ 169 µM)
CCNC(=O)Nc1nc2cc(-c3cnc(C(C)(C)O)nc3)cc(-c3cc(CN4CCOCC4)ccn3)c2s1 [Example 28 (WO2013/138860), 1-ethyl-3-[5-[2-(1-hydroxy-1-methyl-ethyl)pyrimidin-5-yl]-7-[4-(morpholinomethyl)-2-pyridyl]-1,3-benzothiazol-2-yl]urea] | > 64 | 0.5 µg/mL | – | –
CCN1CCN(C(=O)N[C@@H](C(=O)N[C@@H]2C(=O)N3[C@@H]2SC(C)(C)[C@@H]3C(=O)O)c2ccccc2)C(=O)C1=O [Piperacillin, reference compound] | – | – | 0.25 µg/mL | MIC (E. coli (ATCC 25922) [1]; [5]): 2 µg/mL (≈ 3.86 µM)
CCNC(=O)Nc1nc2cc(-c3cccnc3)ccc2s1 [Example 1 Compound VI(a) (WO2009/074812), 1-ethyl-3-(5-pyridin-3-yl-benzothiazol-2-yl)-urea] | > 64 | 8 µg/mL | – | –
Polymyxin B [PMB, reference compound] | – | – | – | MIC PMB alone (E. coli (ATCC 25922) [2]; Table 3): 1 µg/mL

The next lines start with results.

MIC (E. coli (ATCC 25922) [1]; [3]) [µg/mL] | MIC of Compound (μg/ml) in the presence of PMBN (128 μg/ml) (E. coli (ATCC 25922) [2]) | MIC of Compound (μg/ml) in the presence of PMBN (32 μg/ml) (E. coli (ATCC 25922) [2]; Table 12) | Compound | other results
> 64 | <=.12 μg/ml | – | CCNC(=O)Nc1nc2cc(-c3cnc(CNS(C)(=O)=O)nc3)cc(-c3ccc(C)cn3)c2s1 [Compound A-19, 1-ethyl-3-[5-[2-(methanesulfonamidomethyl)pyrimidin-5-yl]-7-(5-methyl-2-pyridyl)-1,3-benzothiazol-2-yl]urea] | –
> 64 | 32 µg/mL | – | CCNC(=O)Nc1nc2cc(-c3cnc(NS(=O)(=O)C(C)(C)C)nc3)cc(N3CCN(CCN4CCCC4)CC3)c2s1 [Compound A-20, 1-[5-[2-(tert-butylsulfonylamino)pyrimidin-5-yl]-7-[4-(2-pyrrolidin-1-ylethyl)piperazin-1-yl]-1,3-benzothiazol-2-yl]-3-ethyl-urea] | –
> 64 | 2 µg/mL | – | CCNC(=O)Nc1nc2c(-c3ccc(C)cn3)cc(-c3cnc(NS(=O)(=O)C(C)(C)C)nc3)cn2n1 [Compound A-101, 1-[6-[2-(tert-butylsulfonylamino)pyrimidin-5-yl]-8-(5-methyl-2-pyridyl)-[1,2,4]triazolo[1,5-a]pyridin-2-yl]-3-ethyl-urea] | –
> 64 | 0.25 µg/mL | – | CCNC(=O)Nc1nc2cc(-c3cnc(NS(=O)(=O)CC(=O)OC)nc3)cc(-c3ccc(C)cn3)c2s1 [Compound A-16, Methyl 2-[[5-[2-(ethylcarbamoylamino)-7-(5-methyl-2-pyridyl)-1,3-benzothiazol-5-yl]pyrimidin-2-yl]sulfamoyl]acetate] | –
32 (≈ 85.7 µM) | 4 µg/mL | – | CCNC(=O)Nc1nc2cc(-c3cnc(C(C)(O)CO)nc3)ccc2s1 (stereo not drawn) [Compound A-7, 1-[5-[2-(1,2-Dihydroxy-1-methyl-ethyl)pyrimidin-5-yl]-1,3-benzothiazol-2-yl]-3-ethyl-urea] | –
1 (≈ 2.55 µM) | 0.06 µg/mL | – | CNc1cc(F)cc2c1[nH]c1nc(Oc3ccc(C)nc3)nc(N3CCCC3)c12 [Compound A-23, 6-Fluoro-N-methyl-2-[(6-methyl-3-pyridyl)oxy]-4-pyrrolidin-1-yl-9H-pyrimido[4,5-b]indol-8-amine, reference compound] | –
> 64 | <=1 μg/ml | – | CCNC(=O)Nc1nc2cc(-n3cnc(C)c3)cc(-c3ccccn3)c2s1 [Compound A-3, 1-Ethyl-3-[5-(4-methylimidazol-1-yl)-7-(2-pyridyl)-1,3-benzothiazol-2-yl]urea] | MIC (E. coli (ATCC 25922) [1]; ATCC25922, read-out: MIC Compound alone, Table 2): > 64 µg/mL; MIC (E. coli (ATCC 25922) [1]; ATCC25922, read-out: MIC Compound alone, Table 3): > 64 µg/mL; MIC of Compound (μg/ml) in the presence of Colistin (1 μg/ml) (E. coli (ATCC 25922) [2]; Table 2, colistin sub-inhibitory): ≦1 μg/ml; MIC of Compound (μg/ml) in the presence of PMB (0.5 μg/ml) (E. coli (ATCC 25922) [2]; Table 3, PMB sub-inhibitory): ≦1 μg/ml
32 (≈ 82.6 µM) | 2 µg/mL | – | CCNC(=O)Nc1nc2cc(-c3cnc(C(C)(O)CO)nc3)cc(C)c2s1 (stereo not drawn) [Compound A-9, 1-[5-[2-(1,2-Dihydroxy-1-methyl-ethyl)pyrimidin-5-yl]-7-methyl-1,3-benzothiazol-2-yl]-3-ethyl-urea] | –
> 64 | 0.008 µg/mL | – | CCNC(=O)Nc1nc2cc(-c3cnc(NC(=O)OC)nc3)cc(-c3ccccn3)c2s1 [Compound A-5, Methyl N-[5-[2-(ethylcarbamoylamino)-7-(2-pyridyl)-1,3-benzothiazol-5-yl]pyrimidin-2-yl]carbamate] | –
